From US20170157112A1, “HIF INHIBITORS” (UCL BUSINESS PLC, priority 2013, published 2017) come the findings set out here.

In one data set the test system is HIF activity. The experiment in a line: U2OS-HRE-luc cell-based HRE-luciferase reporter assay. To be noted: for inhibition of luciferase activity in U2OS-HRE cells: 1 μM, 1% O2 for 16 hours. Here is the method:
Cells were harvested and luciferase activity was measured in cell lysates using a standard luminometer. Data was represented as relative light units (RLU) for each condition.
(§1) Tubulin was used as a loading control.
For orientation: A reporter such as luciferase makes a cellular process visible.

Data set [1] has as its system PC3LN5 orthotopic xenograft. The experiment in a line: PC3LN5 orthotopic mouse xenograft model: tumour growth, metastasis, body weight, PK. The data set is classed as in vivo, mice. As to the method:
(§2) PC3LN5 (10^5 cells) were implanted intraprostatically into mice (Nu) and tumours were allowed to develop for 12 days. Mice received HIF-Inhib1 (75 mg·kg^−1) by IP injection daily for 2.5 weeks. Plasma and tumour samples were taken 24 h after the last dose and analysed by LCMS. Tumours were excised and homogenised, and assessed for PD endpoints HIF-1α and VEGF proteins. Local and distant lymph node metastases were also evaluated.

Data set [2] has as its system VEGF. The experiment in a line: VEGF protein by quantitative ELISA in U2OS-HRE-luc cells. Format: cell-based. As to the method:
(§3) Cells were harvested and assessed for VEGF and GLUT1 protein levels using a quantitative ELISA or by western blot analysis respectively. In addition, tumour cells were exposed to 0.5 or 2.5 μM HIF-Inhib1 in hypoxia, and tumour cell migration was measured using a 2-dimensional filter-based migration assay.
On the technique in general: In an ELISA, binding on a coated surface is turned into a signal by an enzyme label.

Another data set deals with GLUT1. The experiment in a line: GLUT1 protein by western blot in U2OS-HRE-luc cells. To be noted: 0.1-1 μM, hypoxia 16 hours. The data set is classed as cell-based. Here is the method: as §3
The subject of data set [3] is HIF activity and HIF-α expression. The experiment in a line: HIF activity and HIF-α expression in several cancer cell lines. The data set is classed as cell-based.
Data set [4] can be described thus: Tolerability of daily IP dosing in mice. To be noted: mouse, in vivo.
In a further data set the test system is HIF-2α. The experiment in a line: Western blot of HIF-2α protein induction in hypoxia. To be noted: 1 μM. Format: cell-based. Here is the method: (§4) U2OS-HRE-luc described in A, were harvested for western blot analysis. FIG. 1B: Western blots show the effects of HIF-Inhib1 on HIF-1α protein in normoxia or hypoxia. Actin was used as a load control. FIG. 1C: Western blots show HIF-1α, phosphorylated ERK1/2 (ERK1/2-P), and AKT/PKB proteins in the absence (−) and presence of 1 μM HIF-Inhib1 in normoxia (norm) or hypoxia (hyp). Actin was used as a load control. FIG. 1D: Western blots show the effects of HIF-Inhib1 (1 μM) on HIF-2α protein levels. UT (untreated), and DMSO treated (−) controls are indicated;

Data set [5] concerns panel of tumour cell lines. The experiment in a line: Growth inhibition / toxicity on tumour cell lines. The data set is classed as cell-based.
The next data set concerns eIF-2α phosphorylation. The experiment in a line: Western blot of eIF-2α phosphorylation in U2OS-HRE-luc cells. To be noted: for eIF-2α phosphorylation (western blot): dose range, normoxia or hypoxia 16 hours. Format: cell-based. As to the method: Cells were harvested and components of the protein translational machinery were assessed by western blot analysis.
as §1
On the technique in general: In western blotting, separated proteins are transferred to a membrane and probed.

Data set [6] deals with VEGF. The experiment in a line: PD endpoint VEGF protein in PC3LN5 orthotopic tumours. Format: in vivo, mice. To be noted: 75 mg/kg IP daily. Here is the method: as §2
A further data set concerns ERK1/2 and AKt/PKB. The experiment in a line: Western blot of cellular signaling proteins ERK1/2 and AKt/PKB. Format: cell-based. To be noted: 1 μM, normoxia or hypoxia. Here is the method:
as §4

A short description of data set [7]: PK by LCMS in PC3LN5 subcutaneous xenograft mice. To be noted: for concentration at 24 h: intraperitoneal. The data set is classed as in vivo. As to the method: HIF-Inhib1 was administered IP dose of 100 mg·kg^−1 to Nu mice with PC3LN5 xenografts. Mice were killed at 24 h and xenografts removed for PD/PK analysis. Tumour samples were homogenised with 3× (v/w) PBS and 50 μL extracted by addition of 150 μL of methanol. Tumour extracts were analysed by LCMS using reverse-phase Synergi Polar-RP (Phenomenx, 50×2.1 mm) analytical column and positive ion mode ESI+ MRM.

[8] abbreviates: PC3LN5 orthotopic xenograft, 75 mg/kg IP daily.

Read-outs that look alike come from different tables or passages of the source.

For the compound `CCC1=C(CC2c3ccc(OC)cc3CCN2S(C)(=O)=O)CC2c3ccccc3CCN2C1` (racemic) [UCL-ONY-004], the “inhibition of luciferase activity in U2OS-HRE cells” value (“inhibition of luciferase activity” for short) in the data set on HIF activity is “inactive”.

A word on the MTD: it is the largest dose that counted as tolerated. As a reminder, the IC50 is the concentration at which inhibition is half-maximal. For `CCC1=C(CC2NCCc3cc(OC)c(OC)cc32)CC2c3ccccc3CCN2C1` (stereo not drawn) [Compound I], in data set [1] (75 mg/kg IP daily, 24 h after last dose, LCMS), the “PK profile in tumours” value is listed as “good PK profile”. For the same compound, the Mouse body weight entry in [1] (16 days of daily dosing, 75 mg/kg IP) is recorded as “not significantly affected”. The “metastasis (local and distant lymph nodes)” value in data set [1] (setting [8]) is “significantly blocked”. Further, the tumour growth result in data set [1] (setting [8]) is on record as “significantly blocked”. In the data set with VEGF [2] (0.1-1 μM, hypoxia 16 hours, ELISA), the “induction of HIF target protein VEGF” value is “blocks the induction”. The “potency in blocking VEGF induction in hypoxia” value in the data set with VEGF [2] (hypoxia) lay within 250 to 500 nM. Besides, in the data set on GLUT1, the “induction of HIF target protein GLUT1” value was “blocks the induction”. Also, the “HIF activity and HIF-α expression in response to hypoxia and growth factors” value in data set [3] is “inhibits both HIF activity and HIF-α expression”. The MTD in data set [4] was ≤ 100 mg/kg. The “HIF activity (HRE-luciferase activity, RLU)” value in the data set on HIF activity (0.1-1 μM, hypoxia (1% O2) 16 hours) is given as “blocks HIF activity”. In addition, the IC50 with HIF activity (read-out: IC50 for inhibiting HIF activity) was ~500 nM. The “HIF-2α protein induction in hypoxia” value in the data set on HIF-2α is “blocks HIF-2α protein induction in hypoxia”. Also, in [5], the “concentrations inhibiting growth of a panel of tumour cell lines” value is “submicromolar”. For the same compound, the “potency in blocking eIF-2α phosphorylation” value with eIF-2α phosphorylation was in the range of 250 to 500 nM. Besides, the entries for the “eIF-2α phosphorylation (western blot)” value with eIF-2α phosphorylation and in the data set on eIF-2α phosphorylation (listed as HIF-Inhib1) were “block eIF-2α phosphorylation” and “blocked eIF-2α phosphorylation in a dose-dependent manner”, respectively. In the data set with VEGF [6], the “VEGF protein in PC3LN5 orthotopic tumours” value was “blocked”. For the same compound, the “expression of key cellular signaling proteins ERK1/2 and AKt/PKB” value with ERK1/2 and AKt/PKB is “no significant effect”. The bioavailability in vivo entry in data set [7] (100 mg/kg IP, PC3LN5 xenograft mice) is “Good Bioavailability”. The “pharmacokinetic properties in vivo” value in data set [7] (mouse, in vivo) was “favourable pharmacokinetic properties”. For the same compound, the concentration at 24 h in data set [7] (mouse, plasma, 100 mg/kg IP, Nu mice with PC3LN5 xenografts, read-out: Plasma concentrations) was 70 to 300 nM; in data set [7] (mouse, tumour (PC3LN5 subcutaneous xenograft), 100 mg/kg IP, PC3LN5 subcutaneous xenografts, Nu mice, LCMS, read-out: Tumour concentrations), 1900 to 35000 nM.

Turning to `CCC1=C(C[C@@H]2NCCc3cc(OC)c(OC)cc32)C[C@@H]2c3ccccc3CCN2C1` [UCL-ONY-002], the “inhibition of luciferase activity” value in the data set with HIF activity was “inactive”.

Regarding `CCC1=C(C[C@@H]2NCCc3cc(OC)c(OC)cc32)C[C@H]2c3ccccc3CCN2C1` [UCL-ONY-003], in the data set with HIF activity, the “inhibition of luciferase activity” value was “inactive”.

For `CC[C@H]1CN2CCc3cc(OC)c(OC)cc3[C@@H]2C[C@@H]1C[C@H]1NCCc2cc(OC)c(OC)cc21` [emetine, reference compound], the “HIF activity (relative light units)” value with HIF activity (emetine 0.017 uM, hypoxia (1% O2) 16 hours) is “significantly blocked HIF activity”. In addition, the “eIF-2α phosphorylation (western blot)” value in the data set on eIF-2α phosphorylation is “blocks eIF-2α phosphorylation”.
